Measured values as given in ChEMBL document CHEMBL1201862, “PubChem BioAssay data set” (2004).
Each block holds one molecule with its values, some of them ahead of it. Calls of active or inactive are those of the source.

Experiments:
Assay type in all cases: functional
[1] = target: Protein kinase C theta type (Homo sapiens, UniProt Q04759); experiment: Navigating the Kinome. Panel member name: PRKCQ
[2] = target: Ribosomal protein S6 kinase alpha-3 (Homo sapiens, UniProt P51812);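 also: measured within a kinome-wide profiling panel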
[3] = target: Dual specificity protein kinase CLK2 (Homo sapiens, UniProt P49760)
[4] = target: Dual specificity mitogen-activated protein kinase kinase 1 (Homo sapiens, UniProt Q02750); experiment: Navigating the Kinome. Panel member name: MAP2K1
[5] = target: Tyrosine-protein kinase JAK2 (Homo sapiens, UniProt O60674);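 also: JAK2 tested as one member of a kinase panel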
[6] = target: Serine/threonine-protein kinase TBK1 (Homo sapiens, UniProt Q9UHD2); experiment: Navigating the Kinome. Panel member name: TBK1
[7] = target: 5'-AMP-activated protein kinase catalytic subunit alpha-1 (Homo sapiens, UniProt Q13131)
[8] = target: ALK tyrosine kinase receptor (Homo sapiens, UniProt Q9UM73);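 also: ALK tested as one member of a kinase panel screen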
Chain of ALK tyrosine kinase receptor (Q9UM73 whole entry): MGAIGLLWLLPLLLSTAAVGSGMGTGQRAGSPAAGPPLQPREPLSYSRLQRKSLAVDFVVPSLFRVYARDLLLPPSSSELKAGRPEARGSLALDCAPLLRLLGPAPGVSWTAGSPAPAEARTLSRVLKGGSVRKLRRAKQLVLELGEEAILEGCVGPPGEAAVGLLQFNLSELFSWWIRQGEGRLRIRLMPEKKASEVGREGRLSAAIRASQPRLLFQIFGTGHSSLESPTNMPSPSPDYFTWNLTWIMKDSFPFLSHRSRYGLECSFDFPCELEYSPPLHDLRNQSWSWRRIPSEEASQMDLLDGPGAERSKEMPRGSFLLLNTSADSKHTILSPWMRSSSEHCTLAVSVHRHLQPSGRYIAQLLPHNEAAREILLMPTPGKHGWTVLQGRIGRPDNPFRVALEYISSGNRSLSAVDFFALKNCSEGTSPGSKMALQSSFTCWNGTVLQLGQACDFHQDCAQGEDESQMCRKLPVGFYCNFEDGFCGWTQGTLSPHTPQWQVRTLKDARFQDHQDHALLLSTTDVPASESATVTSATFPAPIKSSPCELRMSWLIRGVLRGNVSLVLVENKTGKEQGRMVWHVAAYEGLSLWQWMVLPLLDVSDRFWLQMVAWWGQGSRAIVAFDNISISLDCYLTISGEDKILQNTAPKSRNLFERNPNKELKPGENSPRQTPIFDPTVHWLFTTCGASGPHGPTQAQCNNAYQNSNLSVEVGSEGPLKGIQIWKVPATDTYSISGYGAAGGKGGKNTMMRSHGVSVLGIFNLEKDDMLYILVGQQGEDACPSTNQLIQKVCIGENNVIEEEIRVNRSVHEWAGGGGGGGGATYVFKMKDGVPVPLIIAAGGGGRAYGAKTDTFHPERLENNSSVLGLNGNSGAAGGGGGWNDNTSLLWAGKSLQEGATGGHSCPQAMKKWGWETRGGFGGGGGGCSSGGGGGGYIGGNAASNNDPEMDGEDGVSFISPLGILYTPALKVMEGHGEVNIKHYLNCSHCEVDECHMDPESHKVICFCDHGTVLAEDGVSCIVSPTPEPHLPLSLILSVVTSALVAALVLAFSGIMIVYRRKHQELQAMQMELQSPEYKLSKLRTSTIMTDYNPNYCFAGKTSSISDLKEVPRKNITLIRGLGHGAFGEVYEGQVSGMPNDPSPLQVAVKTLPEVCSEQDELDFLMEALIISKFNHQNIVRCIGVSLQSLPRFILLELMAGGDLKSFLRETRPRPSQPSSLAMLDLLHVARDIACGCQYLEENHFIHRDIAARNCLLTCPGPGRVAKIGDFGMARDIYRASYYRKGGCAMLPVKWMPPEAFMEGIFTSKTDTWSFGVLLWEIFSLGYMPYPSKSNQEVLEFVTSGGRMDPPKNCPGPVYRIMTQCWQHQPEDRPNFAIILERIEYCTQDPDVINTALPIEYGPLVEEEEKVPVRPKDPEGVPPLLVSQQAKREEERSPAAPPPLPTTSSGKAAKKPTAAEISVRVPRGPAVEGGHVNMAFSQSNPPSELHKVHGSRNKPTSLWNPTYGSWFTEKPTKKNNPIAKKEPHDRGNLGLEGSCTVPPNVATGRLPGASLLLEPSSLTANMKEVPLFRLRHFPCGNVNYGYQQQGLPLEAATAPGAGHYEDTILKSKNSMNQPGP

[9] = target: Proto-oncogene tyrosine-protein kinase receptor Ret (Homo sapiens, UniProt P07949);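 also: measured within a kinome-wide profiling panel, RET as the panel member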
[10] = target: Tyrosine-protein kinase receptor TYRO3 (Homo sapiens, UniProt Q06418);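 also: TYRO3 value obtained as one member of a kinome-wide profiling panel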
[11] = target: Serine/threonine-protein kinase D3 (Homo sapiens, UniProt O94806);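 also: determined within a kinase panel screen, with PRKCN as the panel member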
[12] = target: Tyrosine-protein kinase Lck (Homo sapiens, UniProt P06239);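 also: lck was assayed as one member of a kinase panel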
[13] = target: Death-associated protein kinase 3 (Homo sapiens, UniProt O43293);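 also: measured as one member of a kinome-wide profiling panel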
Activin receptor type-1 = Activin receptor type-1 (Homo sapiens, UniProt Q04771); experiment: Navigating the Kinome. Panel member name: ACVR1
[14] = target: Mitogen-activated protein kinase 8 (Homo sapiens, UniProt P45983);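 also: value comes from one member of a kinome-wide kinase profiling panel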
[15] = target: Serine/threonine-protein kinase pim-1 (Homo sapiens, UniProt P11309)
Chain of Serine/threonine-protein kinase pim-1 (P11309 whole entry): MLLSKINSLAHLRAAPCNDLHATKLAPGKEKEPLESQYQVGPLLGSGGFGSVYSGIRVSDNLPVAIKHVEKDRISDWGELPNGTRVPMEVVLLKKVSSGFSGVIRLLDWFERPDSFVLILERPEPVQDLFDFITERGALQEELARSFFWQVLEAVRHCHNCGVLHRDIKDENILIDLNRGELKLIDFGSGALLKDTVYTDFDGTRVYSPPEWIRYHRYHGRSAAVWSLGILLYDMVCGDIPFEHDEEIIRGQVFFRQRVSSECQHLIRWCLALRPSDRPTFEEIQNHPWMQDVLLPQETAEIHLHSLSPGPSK

[16] = target: Tyrosine-protein kinase BTK (Homo sapiens, UniProt Q06187)
[17] = target: Serine/threonine-protein kinase PAK 4 (Homo sapiens, UniProt O96013);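 also: value obtained within a kinome profiling panel in which PAK4 was one of the panel members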
[18] = target: Fibroblast growth factor receptor 1 (Homo sapiens, UniProt P11362)
[19] = target: Casein kinase I isoform alpha (Homo sapiens, UniProt P48729)
[20] = target: Tyrosine-protein kinase JAK3 (Homo sapiens, UniProt P52333)
[21] = target: Mitogen-activated protein kinase 9 (Homo sapiens, UniProt P45984);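 also: value from a kinome panel profiling assay, MAPK9 panel entry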
[22] = target: Serine/threonine-protein kinase TAO1 (Homo sapiens, UniProt Q7L7X3)
[23] = target: Glycogen synthase kinase-3 alpha (Homo sapiens, UniProt P49840);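 also: GSK3A result taken from a broad kinome-wide kinase panel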
[24] = target: Mitogen-activated protein kinase kinase kinase kinase 2 (Homo sapiens, UniProt Q12851);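 also: measured as one member of a kinome-wide kinase panel, with MAP4K2 as the panel entry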
[25] = target: Hepatocyte growth factor receptor (Homo sapiens, UniProt P08581);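 also: kinase panel profiling across the kinome, with MET as the panel member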
Activated CDC42 kinase 1 = Activated CDC42 kinase 1 (Homo sapiens, UniProt Q07912); experiment: Navigating the Kinome. Panel member name: ACK1
[26] = target: Receptor-type tyrosine-protein kinase FLT3 (Homo sapiens, UniProt P36888);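 also: FLT3 was tested as one member of a kinome-wide kinase panel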
[27] = target: Vascular endothelial growth factor receptor 2 (Homo sapiens, UniProt P35968)
[28] = target: G protein-coupled receptor kinase 5 (Homo sapiens, UniProt P34947); experiment: Navigating the Kinome. Panel member name: GPRK5
[29] = target: Insulin-like growth factor 1 receptor (Homo sapiens, UniProt P08069); experiment: Navigating the Kinome. Panel member name: IGF1R
Chain of Insulin-like growth factor 1 receptor (P08069 31-736 limits assumed): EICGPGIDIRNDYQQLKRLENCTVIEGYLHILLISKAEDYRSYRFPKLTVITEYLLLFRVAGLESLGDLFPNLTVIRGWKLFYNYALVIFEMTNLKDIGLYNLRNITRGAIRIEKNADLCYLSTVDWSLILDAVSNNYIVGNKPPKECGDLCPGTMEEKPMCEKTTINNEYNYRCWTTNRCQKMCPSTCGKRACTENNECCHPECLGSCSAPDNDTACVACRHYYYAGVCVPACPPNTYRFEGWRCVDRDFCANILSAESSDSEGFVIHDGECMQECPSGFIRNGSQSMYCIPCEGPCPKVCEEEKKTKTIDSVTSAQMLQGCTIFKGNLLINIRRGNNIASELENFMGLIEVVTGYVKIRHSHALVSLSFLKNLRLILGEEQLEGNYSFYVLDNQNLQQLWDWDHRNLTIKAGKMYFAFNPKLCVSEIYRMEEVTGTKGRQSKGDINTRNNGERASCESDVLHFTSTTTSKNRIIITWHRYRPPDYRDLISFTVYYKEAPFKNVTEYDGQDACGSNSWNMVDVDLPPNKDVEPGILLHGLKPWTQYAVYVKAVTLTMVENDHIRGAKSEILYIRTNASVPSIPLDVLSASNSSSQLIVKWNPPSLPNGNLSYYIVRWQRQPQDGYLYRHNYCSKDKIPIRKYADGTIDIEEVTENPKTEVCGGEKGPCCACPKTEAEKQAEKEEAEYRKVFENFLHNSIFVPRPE
Chain of Insulin-like growth factor 1 receptor (P08069 741-1367 limits assumed): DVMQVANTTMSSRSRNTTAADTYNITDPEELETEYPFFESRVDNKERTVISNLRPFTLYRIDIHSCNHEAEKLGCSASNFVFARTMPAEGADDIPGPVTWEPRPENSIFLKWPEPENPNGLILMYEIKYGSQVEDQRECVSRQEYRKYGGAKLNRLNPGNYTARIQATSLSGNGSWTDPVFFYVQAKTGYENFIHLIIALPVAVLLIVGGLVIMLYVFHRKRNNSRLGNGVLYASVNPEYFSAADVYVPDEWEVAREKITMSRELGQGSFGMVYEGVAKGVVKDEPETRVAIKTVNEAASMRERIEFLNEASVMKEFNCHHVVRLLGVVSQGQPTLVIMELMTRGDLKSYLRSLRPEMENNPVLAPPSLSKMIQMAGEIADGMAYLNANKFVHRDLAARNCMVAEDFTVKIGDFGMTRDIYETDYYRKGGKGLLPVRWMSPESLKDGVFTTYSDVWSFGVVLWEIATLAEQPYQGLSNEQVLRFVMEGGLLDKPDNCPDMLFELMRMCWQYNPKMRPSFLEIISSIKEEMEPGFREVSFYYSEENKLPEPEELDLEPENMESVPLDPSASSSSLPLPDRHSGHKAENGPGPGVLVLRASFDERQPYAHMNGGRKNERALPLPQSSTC

[30] = target: Dual specificity tyrosine-phosphorylation-regulated kinase 1B (Homo sapiens, UniProt Q9Y463); experiment: Navigating the Kinome. Panel member name: DYRK1B
[31] = target: cAMP-dependent protein kinase catalytic subunit PRKX (Homo sapiens, UniProt P51817)
Focal adhesion kinase 1 = Focal adhesion kinase 1 (Homo sapiens, UniProt Q05397);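 also: measured as one member of a kinome panel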
[32] = target: Platelet-derived growth factor receptor alpha (Homo sapiens, UniProt P16234); experiment: Navigating the Kinome. Panel member name: PDGFRA
[33] = target: Leucine-rich repeat serine/threonine-protein kinase 2 (Homo sapiens, UniProt Q5S007);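 also: value from a broad kinome-wide panel profiling study in which LRRK2 was one of the kinases tested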
[34] = target: Rho-associated protein kinase 1 (Homo sapiens, UniProt Q13464);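 also: measured within a broad kinome-wide panel profiling many kinases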
[35] = target: Tyrosine-protein kinase Fyn (Homo sapiens, UniProt P06241)
[36] = target: Cyclin-dependent kinase 8 (Homo sapiens, UniProt P49336); experiment: Navigating the Kinome. Panel member name: CDK8
Chain of Cyclin-dependent kinase 8 (P49336 whole entry): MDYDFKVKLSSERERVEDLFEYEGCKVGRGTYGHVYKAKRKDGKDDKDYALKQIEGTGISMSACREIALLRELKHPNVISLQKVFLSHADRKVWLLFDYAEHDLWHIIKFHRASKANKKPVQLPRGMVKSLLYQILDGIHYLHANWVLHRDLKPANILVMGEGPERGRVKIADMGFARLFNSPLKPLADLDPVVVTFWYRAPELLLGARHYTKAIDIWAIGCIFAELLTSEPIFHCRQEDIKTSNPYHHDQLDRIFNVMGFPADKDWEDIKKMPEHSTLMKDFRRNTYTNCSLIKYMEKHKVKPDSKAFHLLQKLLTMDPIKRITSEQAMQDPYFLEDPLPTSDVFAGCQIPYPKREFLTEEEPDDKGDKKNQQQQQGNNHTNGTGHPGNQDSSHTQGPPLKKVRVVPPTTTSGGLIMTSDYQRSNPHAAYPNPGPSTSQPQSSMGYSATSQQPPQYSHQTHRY

[37] = target: Cyclin-dependent kinase 7 (Homo sapiens, UniProt P50613);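 also: value comes from a kinome-wide kinase profiling panel in which CDK7 is one member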
[38] = target: Vascular endothelial growth factor receptor 1 (Homo sapiens, UniProt P17948);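 also: measured within a kinome-wide profiling panel, FLT1 as the panel member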
Chain of Vascular endothelial growth factor receptor 1 (P17948 whole entry): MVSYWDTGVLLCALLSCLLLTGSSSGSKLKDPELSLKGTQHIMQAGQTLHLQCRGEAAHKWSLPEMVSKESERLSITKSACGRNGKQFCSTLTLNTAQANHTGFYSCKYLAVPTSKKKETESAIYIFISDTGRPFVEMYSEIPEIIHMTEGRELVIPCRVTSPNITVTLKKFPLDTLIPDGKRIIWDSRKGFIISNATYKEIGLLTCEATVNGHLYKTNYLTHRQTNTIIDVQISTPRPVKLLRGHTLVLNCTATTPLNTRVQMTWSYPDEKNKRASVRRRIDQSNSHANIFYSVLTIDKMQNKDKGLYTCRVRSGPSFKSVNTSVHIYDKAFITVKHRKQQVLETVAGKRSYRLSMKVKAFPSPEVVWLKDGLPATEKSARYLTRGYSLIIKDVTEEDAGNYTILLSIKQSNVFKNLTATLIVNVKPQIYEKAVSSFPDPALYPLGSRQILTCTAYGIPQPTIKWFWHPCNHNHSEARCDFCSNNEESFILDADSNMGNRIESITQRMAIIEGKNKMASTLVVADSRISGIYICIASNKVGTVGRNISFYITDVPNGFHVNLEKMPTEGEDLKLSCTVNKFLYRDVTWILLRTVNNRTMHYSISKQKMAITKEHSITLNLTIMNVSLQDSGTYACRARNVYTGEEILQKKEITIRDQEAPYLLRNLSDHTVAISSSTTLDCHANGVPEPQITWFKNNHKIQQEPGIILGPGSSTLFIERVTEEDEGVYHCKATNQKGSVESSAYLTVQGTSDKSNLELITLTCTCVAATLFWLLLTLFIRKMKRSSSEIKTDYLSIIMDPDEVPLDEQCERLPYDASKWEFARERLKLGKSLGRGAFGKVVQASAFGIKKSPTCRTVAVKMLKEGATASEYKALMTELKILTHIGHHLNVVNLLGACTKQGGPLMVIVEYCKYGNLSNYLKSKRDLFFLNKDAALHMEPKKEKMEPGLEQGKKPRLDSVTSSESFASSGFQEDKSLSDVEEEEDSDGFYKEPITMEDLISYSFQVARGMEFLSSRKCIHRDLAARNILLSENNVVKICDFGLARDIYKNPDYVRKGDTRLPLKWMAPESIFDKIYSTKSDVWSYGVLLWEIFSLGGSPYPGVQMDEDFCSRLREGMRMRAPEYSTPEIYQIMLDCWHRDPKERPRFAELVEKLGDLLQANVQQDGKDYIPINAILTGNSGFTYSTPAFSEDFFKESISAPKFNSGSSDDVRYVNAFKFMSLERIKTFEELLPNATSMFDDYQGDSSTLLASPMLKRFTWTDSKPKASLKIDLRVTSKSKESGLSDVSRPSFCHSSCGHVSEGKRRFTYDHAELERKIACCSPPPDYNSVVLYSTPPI

[39] = target: Glycogen synthase kinase-3 beta (Homo sapiens, UniProt P49841);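 also: value comes from a broad kinome profiling panel, with GSK3B as the panel member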
[40] = target: BDNF/NT-3 growth factors receptor (Homo sapiens, UniProt Q16620);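 also: NTRK2 measured as one member of a broad kinome-wide kinase profiling panel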
[41] = target: cAMP-dependent protein kinase catalytic subunit alpha (Homo sapiens, UniProt P17612)
[42] = target: Dual specificity protein kinase CLK4 (Homo sapiens, UniProt Q9HAZ1)
[43] = target: Mitogen-activated protein kinase kinase kinase kinase 4 (Homo sapiens, UniProt O95819)
[44] = target: Macrophage-stimulating protein receptor (Homo sapiens, UniProt Q04912); experiment: Navigating the Kinome. Panel member name: MST1R
[45] = target: Macrophage colony-stimulating factor 1 receptor (Homo sapiens, UniProt P07333);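 also: value comes from the Navigating the Kinome screening panel, CSF1R member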
[46] = target: Dual specificity mitogen-activated protein kinase kinase 2 (Homo sapiens, UniProt P36507); experiment: Navigating the Kinome. Panel member name: MAP2K2
[47] = target: Dual specificity tyrosine-phosphorylation-regulated kinase 1A (Homo sapiens, UniProt Q13627);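 also: measured against DYRK1A as one member of a broad kinome profiling panel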
[48] = target: Inhibitor of nuclear factor kappa-B kinase subunit epsilon (Homo sapiens, UniProt Q14164); experiment: Navigating the Kinome. Panel member name: IKBKE
[49] = target: Calcium/calmodulin-dependent protein kinase type II subunit alpha (Homo sapiens, UniProt Q9UQM7); experiment: Navigating the Kinome. Panel member name: CAMK2A
[50] = target: Leukocyte tyrosine kinase receptor (Homo sapiens, UniProt P29376); experiment: Navigating the Kinome. Panel member name: LTK
[51] = target: Mitogen-activated protein kinase 14 (Homo sapiens, UniProt Q16539);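 also: part of a kinome-wide panel, MAPK14 entry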
[52] = target: Protein kinase C zeta type (Homo sapiens, UniProt Q05513);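 also: measured as one member of a broad kinase profiling panel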
[53] = target: Protein kinase C gamma type (Homo sapiens, UniProt P05129)
[54] = target: MAP kinase-activated protein kinase 3 (Homo sapiens, UniProt Q16644);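 also: value comes from a kinome-wide profiling panel in which MAPKAPK3 is one of the panel members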
[55] = target: Cyclin-dependent kinase 1 (Homo sapiens, UniProt P06493);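 also: Kinome-wide panel profiling, with the target listed as panel member CDC2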
[56] = target: Lymphokine-activated killer T-cell-originated protein kinase (Homo sapiens, UniProt Q96KB5);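 also: value comes from a kinase panel screen in which TOPK was one of the panel members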
[57] = target: Cell division cycle 7-related protein kinase (Homo sapiens, UniProt O00311);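 also: value obtained from a kinome-wide kinase panel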
[58] = target: Cyclin-dependent kinase 19 (Homo sapiens, UniProt Q9BWU1); experiment: Navigating the Kinome. Panel member name: CDC2L6
Aurora kinase A = Aurora kinase A (Homo sapiens, UniProt O14965);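 also: value from the Navigating the Kinome kinase panel profiling, panel entry STK6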
LIM domain kinase 1 = LIM domain kinase 1 (Homo sapiens, UniProt P53667); experiment: Navigating the Kinome. Panel member name: LIMK1
[59] = target: High affinity nerve growth factor receptor (Homo sapiens, UniProt P04629);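 also: NTRK1 tested as one member of a kinome-wide profiling panel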
[60] = target: Serine/threonine-protein kinase Chk1 (Homo sapiens, UniProt O14757);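 also: measured as one member of a kinome-wide kinase profiling panel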
[61] = target: Tyrosine-protein kinase ABL1 (Homo sapiens, UniProt P00519)
[62] = target: Cyclin-dependent kinase 5 (Homo sapiens, UniProt Q00535);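 also: CDK5 measured as one member of a kinase profiling panel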
Aurora kinase B = Aurora kinase B (Homo sapiens, UniProt Q96GD4)
[63] = target: Cyclin-dependent kinase 9 (Homo sapiens, UniProt P50750);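 also: value from the CDK9 entry of a kinome-spanning kinase panel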

Ki [1]: 0.501 µM (active) | Ki [2]: > 3.98 µM (inactive) | Ki [3]: 2.51 µM (active) | Ki [4]: > 3.16 µM (inactive) | Ki [5]: 0.1 µM (active) | Ki [6]: > 3.16 µM (inactive) | Ki [7]: 0.158 µM (active) | Ki [8]: 0.126 µM (active) | Ki [9]: 0.0398 µM (active) | Ki [10]: > 3.16 µM (inactive) | Ki [11]: > 3.98 µM (inactive) | Ki [12]: 0.398 µM (active) | Ki (Activin receptor type-1): 1.58 µM (active) | Ki [14]: > 5.01 µM (inactive) | Ki [15]: > 6.31 µM (inactive) | Ki [16]: 1 µM (active) | Ki [17]: > 5.01 µM (inactive) | Ki [18]: 0.0251 µM (active) | Ki [19]: 1 µM (active) | Ki [20]: 2 µM (active) | Ki [21]: > 3.98 µM (inactive) | Ki [22]: 2.51 µM (active) | Ki [23]: > 3.98 µM (inactive) | Ki [24]: > 2.51 µM (inactive) | Ki [25]: > 2.51 µM (inactive) | Ki (Activated CDC42 kinase 1): 0.0251 µM (active) | Ki [26]: 0.316 µM (active) | Ki [27]: 0.501 µM (active) | Ki [28]: > 3.98 µM (inactive) | Ki [29]: 1.26 µM (active) | Ki [30]: > 2.51 µM (inactive) | Ki [31]: > 3.16 µM (inactive) | Ki (Focal adhesion kinase 1): 0.0316 µM (active) | Ki [32]: > 2.51 µM (inactive) | Ki [33]: 1 µM (active) | Ki [34]: 2 µM (active) | Ki [35]: 0.398 µM (active) | Ki [36]: > 3.98 µM (inactive) | Ki [37]: 0.316 µM (active) | Ki [38]: 1.58 µM (active) | Ki [39]: > 3.98 µM (inactive) | Ki [40]: 0.001 µM (active) | Ki [41]: > 1.26 µM (inactive) | Ki [42]: 0.501 µM (active) | Ki [43]: > 5.01 µM (inactive) | Ki [44]: 0.2 µM (active) | Ki [45]: > 2.51 µM (inactive) | Ki [46]: > 3.98 µM (inactive) | Ki [47]: > 2 µM (inactive) | Ki [48]: > 3.16 µM (inactive) | Ki [49]: 0.316 µM (active) | Ki [50]: 0.0316 µM (active) | Ki [51]: > 3.98 µM (inactive)
Structure (SMILES): CC(C)Oc1cc(Nc2nc(NC(C)c3ccc(F)cn3)ncc2Cl)n[nH]1 (stereo not drawn)
Ki [13]: > 5.01 µM (inactive)

Ki [52]: > 7.94 µM (inactive) | Ki [53]: > 7.94 µM (inactive) | Ki [54]: > 10 µM (inactive) | Ki [55]: > 7.94 µM (inactive)
Structure (SMILES): Oc1cccc(-c2nc(N3CCOCC3)c3oc4ncccc4c3n2)c1 [PI-103]
Ki [56]: > 10 µM (inactive)

Ki [57]: 0.398 µM (active) | Ki [58]: > 100 µM (inactive)
Structure (SMILES): Cn1ncc2cc(Nc3ccnc(N)n3)ccc21

Ki [1]: > 2.51 µM (inactive) | Ki [3]: > 3.98 µM (inactive) | Ki [4]: > 3.16 µM (inactive) | Ki [5]: > 2.51 µM (inactive) | Ki [6]: > 3.16 µM (inactive) | Ki [7]: > 3.16 µM (inactive) | Ki [8]: > 6.31 µM (inactive) | Ki [9]: > 3.16 µM (inactive) | Ki [10]: 0.501 µM (active) | Ki [11]: > 3.98 µM (inactive) | Ki (Activin receptor type-1): 0.2 µM (active) | Ki [14]: 0.794 µM (active) | Ki [15]: > 6.31 µM (inactive) | Ki (Aurora kinase A): 0.398 µM (active) | Ki [16]: > 6.31 µM (inactive) | Ki [17]: > 5.01 µM (inactive) | Ki [18]: 2.51 µM (active) | Ki [20]: > 5.01 µM (inactive) | Ki [21]: 2.51 µM (active) | Ki (LIM domain kinase 1): > 3.16 µM (inactive) | Ki [22]: 2.51 µM (active) | Ki [59]: > 3.16 µM (inactive) | Ki [23]: 0.316 µM (active) | Ki [24]: > 2.51 µM (inactive) | Ki [25]: 2.51 µM (active) | Ki (Activated CDC42 kinase 1): > 3.98 µM (inactive) | Ki [26]: 2.51 µM (active) | Ki [60]: > 3.16 µM (inactive) | Ki [61]: 0.501 µM (active) | Ki [27]: 1 µM (active) | Ki [28]: > 3.98 µM (inactive) | Ki [62]: 0.501 µM (active) | Ki [29]: > 2.51 µM (inactive) | Ki [30]: 0.794 µM (active) | Ki [31]: > 3.16 µM (inactive) | Ki [32]: > 2.51 µM (inactive) | Ki [33]: 0.631 µM (active) | Ki (Aurora kinase B): 0.794 µM (active) | Ki [34]: > 3.98 µM (inactive) | Ki [35]: > 6.31 µM (inactive) | Ki [36]: > 3.98 µM (inactive) | Ki [37]: > 3.98 µM (inactive) | Ki [38]: 3.16 µM (active) | Ki [39]: 0.398 µM (active) | Ki [63]: 0.0316 µM (active) | Ki [40]: 3.98 µM (active) | Ki [41]: > 1.26 µM (inactive) | Ki [42]: 0.501 µM (active) | Ki [44]: 3.98 µM (active) | Ki [45]: > 2.51 µM (inactive) | Ki [46]: > 3.98 µM (inactive) | Ki [47]: > 2 µM (inactive) | Ki [48]: > 3.16 µM (inactive) | Ki [49]: 1 µM (active) | Ki [50]: > 2.51 µM (inactive) | Ki [51]: > 3.98 µM (inactive)
Structure (SMILES): COc1ccccc1-c1ccnc(Nc2cccc(S(C)(=O)=O)c2)n1
Ki [13]: > 5.01 µM (inactive)
